{"source": "patent US20240182442A1", "about": "“ANHYDROUS POLYMORPHS OF ANDROGEN RECEPTOR ANTAGONIST, PREPARATION METHOD THEREFOR, AND USE THEREOF” (SUZHOU KINTOR PHARMACEUTICALS, INC., priority 2021, published 2024)", "key": {"[1]": {"assay": "Pharmacokinetic study, skin application to SD rats", "type": "in vivo, SD rats (Sprague-Dawley rats)", "settings": "for ratio of AUC(0-t) on day 7 to day 1: 12 mg/kg skin application once a day for 7 days", "text": "The obtained blood concentration data were simultaneously used to calculate the relevant pharmacokinetic parameters using the pharmacokinetic processing software WinNonlin v5.2 […] for plasma pharmacokinetic characterization analysis."}, "[2]": {"assay": "Dynamic vapor sorption (DVS) hygroscopicity evaluation, with XRPD before and after", "type": "physicochemical", "description": "The DVS curves were collected on a DVS Intrinsic Dynamic Moisture Sorption meter from SMS (Surface Measurement Systems). The relative humidity at 25° C. was corrected with the deliquescence points of LiCl, Mg (NO3)2 and KCl."}, "[3]": {"assay": "Suspension competition test of mixed crystalline forms A/B/C/D in saturated solution (thermodynamic transition)", "type": "physicochemical", "description": "To study the thermodynamic transition relationship of the four anhydrous polymorphs (respectively corresponding to A/B/C/D), samples (each sample was about 5 mg) having crystalline forms A/B/C/D were mixed and added respectively under the conditions of 5° C./room temperature (about 20° C.)/50° C./90° C. to a saturated solution of the compound of formula I (for example, ethanol or methyl tert-butyl ether) (about 1.0 mL), and stirred (magnetic stirring, about 800 rpm). solid was separated (centrifugation, about 10000 rpm, 1 min), and XRPD test was performed."}, "[4]": {"assay": "Solid-state stability, one week storage, tested by XRPD and HPLC", "type": "physicochemical", "settings": "for Purity (Peak area %) / Relative purity (%/Control): one week; for Purity (Peak area %): HPLC; for Relative purity (%/Control): vs 5° C. sealed control", "text": "Samples were removed after one week, and the obtained samples were characterized and tested by XRPD and HPLC to respectively detect changes in crystalline form and purity."}, "[5]": {"assay": "Heat treatment test under nitrogen protection (crystal transformation)", "type": "physicochemical", "settings": "for crystal transformation on heating: nitrogen", "text": "At the same time, the above crystal transformation phenomenon can also be confirmed by the absorption/exothermic peaks appearing in FIG. 7 and FIG. 11."}}}
{"compound": "COc1c(C#N)ccc(N2C(=O)C(C)(C)N(c3ccc(C)nc3)C2=S)c1F", "note": "[crystalline form D, 4-[4,4-dimethyl-3-(6-methylpyridin-3-yl)-5-oxo-2-thioxoimidazolidin-1-yl]-3-fluoro-2-methoxybenzonitrile]", "values": [{"measurement": "ratio of AUC(0-t) on day 7 to day 1", "setting": "[1]; female SD rats", "value": 0.942}, {"measurement": "ratio of AUC(0-t) on day 7 to day 1", "setting": "[1]; male SD rats", "value": 1.30}, {"measurement": "accumulation after repeated administration", "setting": "[1]; male and female SD rats, 12 mg/kg skin application, 7 days", "value": "no obvious accumulation"}, {"measurement": "hygroscopicity (conclusion in words)", "setting": "[2]; DVS, 0% RH to 80% RH, 25° C.", "value": "almost no hygroscopicity"}, {"measurement": "crystalline form before and after the DVS test (XRPD)", "setting": "[2]; before vs after DVS experiment", "value": "maintained the same crystalline form"}, {"measurement": "water absorbed (moisture absorption, DVS)", "setting": "[2]; relative humidity increased from 0% RH to 80% RH, 25° C.", "value": 0.14, "unit": "wt %"}, {"measurement": "relative stability of the crystalline form", "setting": "[3]; at room temperature", "value": "more stable than the crystalline forms A/B/C"}, {"measurement": "Solid crystalline form after one week", "setting": "[4]; 5° C., sealed (control)", "value": "Crystalline form D"}, {"measurement": "Purity (Peak area %)", "setting": "[4]; 5° C., sealed (control)", "value": 99.9, "unit": "Peak area %"}, {"measurement": "Solid crystalline form after one week", "setting": "[4]; 25° C./60% RH, open", "value": "Crystalline form D"}, {"measurement": "Purity (Peak area %)", "setting": "[4]; 25° C./60% RH, open", "value": 99.9, "unit": "Peak area %"}, {"measurement": "Relative purity (%/Control)", "setting": "[4]; 25° C./60% RH, open", "value": 100.0, "unit": "%/Control"}, {"measurement": "Solid crystalline form after one week", "setting": "[4]; 40° C./75% RH, open", "value": "Crystalline form D"}, {"measurement": "Purity (Peak area %)", "setting": "[4]; 40° C./75% RH, open", "value": 99.9, "unit": "Peak area %"}, {"measurement": "Relative purity (%/Control)", "setting": "[4]; 40° C./75% RH, open", "value": 100.0, "unit": "%/Control"}]}
{"compound": "COc1c(C#N)ccc(N2C(=O)C(C)(C)N(c3ccc(C)nc3)C2=S)c1F", "note": "[crystalline form C, 4-[4,4-dimethyl-3-(6-methylpyridin-3-yl)-5-oxo-2-thioxoimidazolidin-1-yl]-3-fluoro-2-methoxybenzonitrile]", "values": [{"measurement": "crystal transformation on heating", "setting": "[5]; further heated to about 166° C. and cooled to room temperature", "value": "transformed into crystalline form B"}, {"measurement": "crystal transformation on heating", "setting": "[5]; heated to about 148° C.", "value": "transformed into crystalline forms B/D"}]}
{"compound": "COc1c(C#N)ccc(N2C(=O)C(C)(C)N(c3ccc(C)nc3)C2=S)c1F", "note": "[crystalline form A, 4-[4,4-dimethyl-3-(6-methylpyridin-3-yl)-5-oxo-2-thioxoimidazolidin-1-yl]-3-fluoro-2-methoxybenzonitrile]", "values": [{"measurement": "crystal transformation by suspension agitation", "setting": "[3]; less than 90° C.", "value": "transformed into the form D"}, {"measurement": "crystal transformation on heating", "setting": "[5]; heated to about 160° C. and then cooled to room temperature", "value": "transformed into crystalline form B"}]}
{"compound": "COc1c(C#N)ccc(N2C(=O)C(C)(C)N(c3ccc(C)nc3)C2=S)c1F", "note": "[crystalline form B, 4-[4,4-dimethyl-3-(6-methylpyridin-3-yl)-5-oxo-2-thioxoimidazolidin-1-yl]-3-fluoro-2-methoxybenzonitrile]", "values": [{"measurement": "relative stability of the crystalline form", "setting": "[5]; under heating conditions", "value": "more stable than crystalline forms A/C"}]}
